Like-named read-outs stand apart in the source and are kept apart here.
What was measured:
Format in all cases: in vivo
[1] = tested on: Euschistus heros; experiment: Euschistus heros (neotropical brown stink bug), soybean leaf test; conditions: 120 h, read-out: effect in at least one of the two categories (mortality or growth inhibition); for percent effect (mortality or growth inhibition) at 200 ppm: application rate 200 ppm, N2 nymphs, 5 days after infestation
Protocol: Euschistus heros (Neotropical Brown Stink Bug):
Soybean leaves on agar in 24-well microtiter plates were sprayed with aqueous test solutions prepared from 10′000 ppm DMSO stock solutions. After drying the leaves were infested with N2 nymphs. The samples were assessed for mortality and growth inhibition in comparison to untreated samples 5 days after infestation.

[2] = tested on: Plutella xylostella; experiment: Plutella xylostella (diamond back moth), artificial diet test; conditions: 120 h, read-out: control (mortality and growth inhibition)
Protocol: Plutella xylostella (Diamond Back Moth):
(§1) 24-well microtiter plates with artificial diet were treated with aqueous test solutions prepared from 10′000 ppm DMSO stock solutions by pipetting. After drying, the plates were infested with L2 larvae (10 to 15 per well). The samples were assessed for mortality and growth inhibition in comparison to untreated samples 5 days after infestation.

[3] = tested on: Spodoptera littoralis; experiment: Spodoptera littoralis (Egyptian cotton leaf worm), cotton leaf disc spray test; conditions: foliar, 72 h, read-out: control (at least one of mortality, anti-feedant effect, growth inhibition); for percent control (mortality, anti-feedant effect or growth inhibition) at 200 ppm: application rate 200 ppm, L1 larvae, 3 days after infestation
Protocol: Spodoptera littoralis (Egyptian Cotton Leaf Worm)
Cotton leaf discs were placed on agar in 24-well microtiter plates and sprayed with aqueous test solutions prepared from 10′000 ppm DMSO stock solutions. After drying the leaf discs were infested with five L1 larvae. The samples were assessed for mortality, anti-feedant effect, and growth inhibition in comparison to untreated samples 3 days after infestation. Control of Spodoptera littoralis by a test sample is when at least one of mortality, anti-feedant effect, and growth inhibition is higher than the untreated sample.

[4] = tested on: Myzus persicae; experiment: Myzus persicae (green peach aphid), sucrose solution / Parafilm test; conditions: 120 h
Source text: (§2) Myzus persicae (Green Peach Aphid):
Test compounds were applied by pipette into 24 well plates and mixed with Sucrose solution. Application rate: 12.5 ppm. The plates were closed with a stretched parafilm. A plastic stencil with 24 holes is placed onto the plate and infested pea seedlings were placed directly on the Parafilm. The infested plate is closed with a gel blotting paper and another plastic stencil and then turned upside down. 5 days after infestation the samples were checked on mortality.

[5] = tested on: Thrips tabaci; experiment: Thrips tabaci (onion thrips), sunflower leaf disc test; conditions: foliar, 144 h, read-out: control (mortality)
Protocol: Thrips tabaci (Onion Thrips):
(§3) Sunflower leaf discs were placed on agar in 24-well microtiter plates and sprayed with aqueous test solutions prepared from 10′000 ppm DMSO stock solutions. After drying the leaf discs were infested with a thrips population of mixed ages. The samples were assessed for mortality 6 days after infestation.

[6] = tested on: Diabrotica balteata; experiment: Diabrotica balteata (corn root worm), maize sprout test; conditions: 96 h, read-out: control (mortality and growth inhibition)
Protocol: Diabrotica balteata, (Corn Root Worm)
as §1, with “Maize sprouts, placed on an agar layer in 24-well” for “24-well”, “plates” for “plates with artificial diet”, “spraying.” for “pipetting.”, “(6” for “(10”, “10” for “15”, “4” for “5”

[7] = tested on: Tetranychus urticae; experiment: Tetranychus urticae (two-spotted spider mite), bean leaf disc test; conditions: foliar, 192 h, read-out: control (mortality on mixed population, mobile stages)
Protocol: Tetranychus urticae (Two-Spotted Spider Mite):
as §3, with “Bean” for “Sunflower”, “discs” for “discs were placed”, “were” for “and”, “mite” for “thrips”, “on mixed population (mobile stages) 8” for “6”

[8] = tested on: Myzus persicae; experiment: Myzus persicae (green peach aphid), sunflower leaf disc spray test; conditions: foliar, 144 h
Protocol: as §2
Sunflower leaf discs were placed on agar in a 24-well microtiter plate and sprayed with test solutions at an application rate of 200 ppm. After drying, the leaf discs were infested with an aphid population of mixed ages. After an incubation period of 6 DAT, samples were checked for mortality. The following compounds gave at least 80% mortality of Myzus persicae: compounds 1,2, 3, 4, 5, 6, 11, 12, 15, 17, 18, 19, 20, 23, 24, 25, 26, 27, 30, 32, 33, 34 35, 41, 43, 44, 47, 50, 55, 58, 59, 60, 61, 62, 63, 64, 65 and 66.

[9] = application rate 200 ppm, L2 larvae, 5 days after infestation
[10] = application rate 200 ppm, mixed ages, 6 days after infestation
[11] = application rate 200 ppm, L2 larvae, 4 days after infestation
[12] = application rate 200 ppm, 8 days after infestation
[13] = application rate 200 ppm, mixed ages, 6 DAT, read-out: mortality
[14] = test rate of 12 ppm, sucrose solution, 5 days after infestation, read-out: mortality

Cn1nc(OC(F)(F)C(F)OC(F)(F)C(F)(F)C(F)(F)F)c(C(F)(F)F)c1-n1cc(-c2ccc(Cl)c(C(=O)NC3(C#N)CC3)c2)cn1 (centres unmarked) [compound 17]
≥ 80%: percent control (mortality or growth inhibition) at 200 ppm [1] | mortality at 200 ppm [2] | mortality at 200 ppm [3] | mortality at 12 ppm [4] | mortality at 200 ppm [5] | mortality at 200 ppm [6] | mortality at 200 ppm [7] | mortality at 200 ppm [8]

Cn1nc(OC(F)(F)C(F)Br)c(C(F)(F)F)c1-n1cc(-c2ccc(Cl)c(C(=O)NC3CC3)c2)cn1 (centres unmarked) [compound 43]
≥ 80%: percent effect (mortality or growth inhibition) at 200 ppm [1] | mortality at 200 ppm [2, 9] | percent control (mortality, anti-feedant effect or growth inhibition) at 200 ppm [3] | mortality at 200 ppm [5, 10] | mortality at 200 ppm [6, 11] | mortality at 200 ppm [7, 12] | mortality at 200 ppm [8, 13]

Cn1nc(OCCOC(F)(F)F)c(C(F)(F)F)c1-n1cc(-c2ccc(Cl)c(C(=O)NC3CC3)c2)cn1 [compound 34]
≥ 80%: percent effect (mortality or growth inhibition) at 200 ppm [1] | mortality at 200 ppm [2, 9] | percent control (mortality, anti-feedant effect or growth inhibition) at 200 ppm [3] | mortality at 12 ppm [4, 14] | mortality at 200 ppm [6, 11] | mortality at 200 ppm [7, 12] | mortality at 200 ppm [8, 13]

Cn1nc(OC(F)(F)C(F)F)c(C(F)(F)F)c1-n1cc(-c2ccc(Cl)c(C(=O)NC3(C#N)CC3)c2)cn1 [compound 11]
≥ 80%: percent effect (mortality or growth inhibition) at 200 ppm [1] | mortality at 200 ppm [2, 9] | percent control (mortality, anti-feedant effect or growth inhibition) at 200 ppm [3] | mortality at 12 ppm [4, 14] | mortality at 200 ppm [5, 10] | mortality at 200 ppm [6, 11] | mortality at 200 ppm [7, 12] | mortality at 200 ppm [8, 13]

Cn1nc(OC(F)(F)C(F)(C(F)=C(F)C(F)(F)F)C(F)(F)F)c(C(F)(F)F)c1-n1cc(-c2ccc(Cl)c(C(=O)NC3(C#N)CC3)c2)cn1 (centres unmarked) [compound 50]
≥ 80%: percent effect (mortality or growth inhibition) at 200 ppm [1] | mortality at 200 ppm [2, 9] | percent control (mortality, anti-feedant effect or growth inhibition) at 200 ppm [3] | mortality at 12 ppm [4, 14] | mortality at 200 ppm [5, 10] | mortality at 200 ppm [6, 11] | mortality at 200 ppm [7, 12] | mortality at 200 ppm [8, 13]

Cn1nc(OC(F)(F)C(F)Cl)c(C(F)(F)F)c1-n1cc(-c2ccc(Cl)c(C(=O)NC3(C#N)CC3)c2)cn1 (centres unmarked) [compound 44]
≥ 80%: percent effect (mortality or growth inhibition) at 200 ppm [1] | mortality at 12 ppm [4, 14] | mortality at 200 ppm [5, 10] | mortality at 200 ppm [6, 11] | mortality at 200 ppm [7, 12] | mortality at 200 ppm [8, 13]

Cn1nc(OC(F)(F)C(F)OC(F)(F)F)c(C(F)(F)F)c1-n1cc(-c2cnc(Cl)c(C(=O)NC3CC3)c2)cn1 (centres unmarked) [compound 62]
≥ 80%: percent effect (mortality or growth inhibition) at 200 ppm [1] | mortality at 200 ppm [2, 9] | percent control (mortality, anti-feedant effect or growth inhibition) at 200 ppm [3] | mortality at 200 ppm [5, 10] | mortality at 200 ppm [6, 11] | mortality at 200 ppm [7, 12] | mortality at 200 ppm [8, 13]

COc1nn(C)c(-n2cc(-c3ccc(Cl)c(C(=O)NC4(C#N)CC4)c3)cn2)c1C(F)(F)F [compound 5]
≥ 80%: mortality at 12 ppm [4, 14] | mortality at 200 ppm [8, 13]

Cn1nc(OC(F)(F)C(F)OC(F)(F)F)c(C(F)(F)F)c1-n1cc(-c2cnc(Cl)c(C(=O)NC3(C#N)CC3)c2)cn1 (centres unmarked) [compound 61]
≥ 80%: percent effect (mortality or growth inhibition) at 200 ppm [1] | mortality at 200 ppm [2, 9] | percent control (mortality, anti-feedant effect or growth inhibition) at 200 ppm [3] | mortality at 200 ppm [5, 10] | mortality at 200 ppm [6, 11] | mortality at 200 ppm [7, 12] | mortality at 200 ppm [8, 13]

Cc1ccc(-c2cnn(-c3c(C(F)(F)F)c(OC(F)(F)C(F)C(F)(F)F)nn3C)c2)cc1C(=O)NC1CC1 (centres unmarked) [compound 58]
≥ 80%: mortality at 200 ppm [2, 9] | percent control (mortality, anti-feedant effect or growth inhibition) at 200 ppm [3] | mortality at 12 ppm [4, 14] | mortality at 200 ppm [5, 10] | mortality at 200 ppm [6, 11] | mortality at 200 ppm [7, 12] | mortality at 200 ppm [8, 13]

Cn1nc(OC(F)(F)C(F)C(F)(F)F)c(C(F)(F)F)c1-n1cc(-c2cnc(Cl)c(C(=O)NC3(C#N)CC3)c2)cn1 (centres unmarked) [compound 65]
≥ 80%: percent effect (mortality or growth inhibition) at 200 ppm [1] | mortality at 200 ppm [2, 9] | mortality at 200 ppm [5, 10] | mortality at 200 ppm [6, 11] | mortality at 200 ppm [7, 12] | mortality at 200 ppm [8, 13]

Cn1nc(OC(F)F)c(C(F)(F)F)c1-n1cc(-c2ccc(Cl)c(C(=O)NC3(C#N)CC3)c2)cn1 [compound 1]
≥ 80%: percent effect (mortality or growth inhibition) at 200 ppm [1] | mortality at 200 ppm [2, 9] | percent control (mortality, anti-feedant effect or growth inhibition) at 200 ppm [3] | mortality at 12 ppm [4, 14] | mortality at 200 ppm [6, 11] | mortality at 200 ppm [8, 13]

Cn1nc(SC(F)(F)F)c(Br)c1-n1cc(-c2ccc(Cl)c(C(=O)NC3CC3)c2)cn1 [compound 63]
≥ 80%: percent effect (mortality or growth inhibition) at 200 ppm [1] | mortality at 200 ppm [2, 9] | percent control (mortality, anti-feedant effect or growth inhibition) at 200 ppm [3] | mortality at 200 ppm [5, 10] | mortality at 200 ppm [6, 11] | mortality at 200 ppm [7, 12] | mortality at 200 ppm [8, 13]

Cn1nc(SC(F)(F)C(F)(F)C(F)(F)F)c(Br)c1-n1cc(-c2ccc(Cl)c(C(=O)NC3CC3)c2)cn1 [compound 64]
≥ 80%: percent control (mortality or growth inhibition) at 200 ppm [1] | mortality at 200 ppm [2] | mortality at 200 ppm [3] | mortality at 200 ppm [5] | mortality at 200 ppm [6] | mortality at 200 ppm [7] | mortality at 200 ppm [8]

Cn1nc(OCC(F)F)c(C(F)(F)F)c1-n1cc(-c2ccc(Cl)c(C(=O)NC3CC3)c2)cn1 [compound 24]
≥ 80%: percent effect (mortality or growth inhibition) at 200 ppm [1] | mortality at 200 ppm [2, 9] | percent control (mortality, anti-feedant effect or growth inhibition) at 200 ppm [3] | mortality at 12 ppm [4, 14] | mortality at 200 ppm [6, 11] | mortality at 200 ppm [7, 12] | mortality at 200 ppm [8, 13]

CCNC(=O)c1cc(-c2cnn(-c3c(C(F)(F)F)c(OC(F)(F)C(F)C(F)(F)F)nn3C)c2)ccc1Cl (centres unmarked) [compound 9]
≥ 80%: percent effect (mortality or growth inhibition) at 200 ppm [1] | mortality at 200 ppm [2, 9] | percent control (mortality, anti-feedant effect or growth inhibition) at 200 ppm [3] | mortality at 12 ppm [4, 14] | mortality at 200 ppm [5, 10] | mortality at 200 ppm [6, 11] | mortality at 200 ppm [7, 12]

Cn1nc(OC(F)(F)CBr)c(C(F)(F)F)c1-n1cc(-c2ccc(Cl)c(C(=O)NC3(C#N)CC3)c2)cn1 [compound 41]
≥ 80%: percent effect (mortality or growth inhibition) at 200 ppm [1] | mortality at 200 ppm [2, 9] | percent control (mortality, anti-feedant effect or growth inhibition) at 200 ppm [3] | mortality at 200 ppm [5, 10] | mortality at 200 ppm [6, 11] | mortality at 200 ppm [7, 12] | mortality at 200 ppm [8, 13]

Cn1nc(OC(F)(F)C(F)C(F)(F)F)c(C(F)(F)F)c1-n1cc(-c2cnc(Cl)c(C(=O)NC3CC3)c2)cn1 (centres unmarked) [compound 66]
≥ 80%: percent effect (mortality or growth inhibition) at 200 ppm [1] | mortality at 200 ppm [2, 9] | mortality at 200 ppm [5, 10] | mortality at 200 ppm [7, 12] | mortality at 200 ppm [8, 13]

— patent publication US10750742B2, “Pesticidally active pyrazole derivatives” (SYNGENTA PARTICIPATIONS AG, priority 2015, dated 2020)
